Assay results reported in PMC10038056, “Synthesis, biological evaluation and theoretical studies of (E)-1-(4-sulfamoyl-phenylethyl)-3-arylidene-5-aryl-1H-pyrrol-2(3H)-ones as human carbonic anhydrase inhibitors” (Journal of Enzyme Inhibition and Medicinal Chemistry, 2023).

How the values were obtained:
hCA I = hCA I (Homo sapiens, UniProt P00915); assay: Stopped-flow CO2 hydrase assay, hCA I
Experimental: (§1) (AAZ), a commonly used sulphonamide inhibitor was used for comparing the inhibition data. The Inhibition effects of these compounds on enzyme activities were evaluated under in-vitro conditions. The CA catalysed CO2 hydration activity was measured using an Applied Photophysics stopped-flow instrument. […] In the same way, the uncatalyzed rates were analysed and deducted from the total measured rates. […] The inhibitor and enzyme solutions were preincubated at room temperature for 15 min prior to the experiment to promote the formation of the E-I complex. By employing nonlinear least-squares methods using PRISM 3 and the Cheng-Prusoff equation, the inhibition constants were determined, as was previously reported[18–20]^,[21] and indicate the average of at least three separate measurements that fall between the range of 5 and 10%.

hCA XII = hCA XII (Homo sapiens, UniProt O43570); assay: Stopped-flow CO2 hydrase assay, hCA XII
Experimental: as §1

hCA IX = hCA IX (Homo sapiens, UniProt Q16790); assay: Stopped-flow CO2 hydrase assay, hCA IX
Experimental: as §1

hCA II = hCA II (Homo sapiens, UniProt P00918); assay: Stopped-flow CO2 hydrase assay, hCA II
Experimental: as §1

[1] = stopped flow, mean from 3 assays, errors 5–10%

hCA XII, sequence (O43570 25-354): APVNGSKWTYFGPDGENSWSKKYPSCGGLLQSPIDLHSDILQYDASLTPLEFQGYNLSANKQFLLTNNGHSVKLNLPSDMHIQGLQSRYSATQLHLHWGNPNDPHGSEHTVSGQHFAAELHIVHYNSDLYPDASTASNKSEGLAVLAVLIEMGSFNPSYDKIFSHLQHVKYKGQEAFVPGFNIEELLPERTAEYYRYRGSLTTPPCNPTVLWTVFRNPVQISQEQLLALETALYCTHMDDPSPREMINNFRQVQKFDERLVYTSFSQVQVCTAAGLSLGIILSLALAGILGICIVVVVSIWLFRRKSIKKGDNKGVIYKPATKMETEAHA
hCA I, sequence (P00915 whole entry): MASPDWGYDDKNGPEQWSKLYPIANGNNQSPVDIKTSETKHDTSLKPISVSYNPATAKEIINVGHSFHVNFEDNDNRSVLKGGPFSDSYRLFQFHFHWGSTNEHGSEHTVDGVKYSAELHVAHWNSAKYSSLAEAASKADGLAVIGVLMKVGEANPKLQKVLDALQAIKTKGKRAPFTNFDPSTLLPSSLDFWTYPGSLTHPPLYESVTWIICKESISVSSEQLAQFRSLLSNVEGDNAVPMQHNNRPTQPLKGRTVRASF

Compound | Ki (hCA I; [1]) [µM] | melting point [°C] | Ki (hCA XII; [1]) [µM] | Ki (hCA IX) [nM] | Ki (hCA II) [nM] | Ki (hCA I; in µM) [µM] | Ki (hCA XII; in µM) [µM]
NS(=O)(=O)c1ccc(CCN2C(=O)/C(=C/c3ccccc3)C=C2c2ccccc2)cc1 [Compound 3a, (E)-4-(2-(3-benzylidene-2-oxo-5-phenyl-2,3-dihydro-1H-pyrrol-1-yl)ethyl) benzenesulphonamide] | 0.634 | 167 to 168 | 0.0621 | 93.8 | 368 |  | 
NS(=O)(=O)c1ccc(CCN2C(=O)/C(=C/c3ccc(F)cc3)C=C2c2ccccc2)cc1 [Compound 3b, (E)-4-(2-(3-(4-fluorobenzylidene)-2-oxo-5-phenyl-2,3-dihydro-1H-pyrrol-1-yl)ethyl)benzenesulphonamide] | 0.369 | 170 to 171 | 0.0456 | 72.7 | 81.4 |  | 
NS(=O)(=O)c1ccc(CCN2C(=O)/C(=C/c3ccc(Cl)cc3)C=C2c2ccccc2)cc1 [Compound 3c, (E)-4-(2-(3-(4-chlorobenzylidene)-2-oxo-5-phenyl-2,3-dihydro-1H-pyrrol-1-yl)ethyl)benzenesulphonamide] | 3.25 | 192 to 193 | 0.0765 | 108 | 718 |  | 
NS(=O)(=O)c1ccc(CCN2C(=O)/C(=C/c3ccc(Br)cc3)C=C2c2ccccc2)cc1 [Compound 3d, (E)-4-(2-(3-(4-bromobenzylidene)-2-oxo-5-phenyl-2,3-dihydro-1H-pyrrol-1-yl)ethyl)benzenesulphonamide] | 4.25 | 214 to 215 | 0.0898 | 112 | 1430 |  | 
Cc1ccc(C2=C/C(=C\c3ccccc3)C(=O)N2CCc2ccc(S(N)(=O)=O)cc2)cc1 [Compound 3e, (E)-4-(2-(3-benzylidene-2-oxo-5-(p-tolyl)-2,3-dihydro-1H-pyrrol-1-yl)ethyl)benzenesulphonamide] | 3.2 | 189 to 190 | 0.0584 | 117 | 471 |  | 
Cc1ccc(C2=C/C(=C\c3ccc(F)cc3)C(=O)N2CCc2ccc(S(N)(=O)=O)cc2)cc1 [Compound 3f, (E)-4-(2-(3-(4-fluorobenzylidene)-2-oxo-5-(p-tolyl)-2,3-dihydro-1H-pyrrol-1-yl)ethyl)benzenesulphonamide] | 2.53 | 196 to 197 | 0.0427 | 103 | 147 |  | 
Cc1ccc(C2=C/C(=C\c3ccc(Cl)cc3)C(=O)N2CCc2ccc(S(N)(=O)=O)cc2)cc1 [Compound 3g, (E)-4-(2-(3-(4-chlorobenzylidene)-2-oxo-5-(p-tolyl)-2,3-dihydro-1H-pyrrol-1-yl)ethyl)benzenesulphonamide] | 4.39 | 224 to 225 | 0.0734 | 95.5 | 942 |  | 
Cc1ccc(C2=C/C(=C\c3ccc(Br)cc3)C(=O)N2CCc2ccc(S(N)(=O)=O)cc2)cc1 [Compound 3h, (E)-4-(2-(3-(4-bromobenzylidene)-2-oxo-5-(p-tolyl)-2,3-dihydro-1H-pyrrol-1-yl)ethyl)benzenesulphonamide] | 4.19 | 233 to 234 | 0.094 | 84.2 | 1870 |  | 
CCc1ccc(C2=C/C(=C\c3ccccc3)C(=O)N2CCc2ccc(S(N)(=O)=O)cc2)cc1 [Compound 3i, (E)-4-(2-(3-benzylidene-5-(4-ethylphenyl)-2-oxo-2,3-dihydro-1H-pyrrol-1-yl)ethyl)benzenesulphonamide] | 1.79 | 183 to 184 | 0.0839 | 78.3 | 901 |  | 
CCc1ccc(C2=C/C(=C\c3ccc(F)cc3)C(=O)N2CCc2ccc(S(N)(=O)=O)cc2)cc1 [Compound 3j, (E)-4-(2-(5-(4-ethylphenyl)-3-(4-fluorobenzylidene)-2-oxo-2,3-dihydro-1H-pyrrol-1-yl)ethyl)benzenesulphonamide] | 0.836 | 185 to 186 | 0.0662 | 71.4 | 296 |  | 
CCc1ccc(C2=C/C(=C\c3ccc(Cl)cc3)C(=O)N2CCc2ccc(S(N)(=O)=O)cc2)cc1 [Compound 3k, (E)-4-(2-(3-(4-chlorobenzylidene)-5-(4-ethylphenyl)-2-oxo-2,3-dihydro-1H-pyrrol-1-yl)ethyl)benzenesulphonamide] | 5.93 | 186 to 187 | 0.0911 | 102 | 1620 |  | 
CCc1ccc(C2=C/C(=C\c3ccc(Br)cc3)C(=O)N2CCc2ccc(S(N)(=O)=O)cc2)cc1 [Compound 3l, (E)-4-(2-(3-(4-bromobenzylidene)-5-(4-ethylphenyl)-2-oxo-2,3-dihydro-1H-pyrrol-1-yl)ethyl)benzenesulphonamide] | 6.76 | 188 to 189 | 0.0563 | 77.5 | 3710 |  | 
NS(=O)(=O)c1ccc(CCN2C(=O)/C(=C/c3ccccc3)C=C2c2ccc(Cl)cc2)cc1 [Compound 3m, (E)-4-(2-(3-benzylidene-5-(4-chlorophenyl)-2-oxo-2,3-dihydro-1H-pyrrol-1-yl)ethyl)benzenesulphonamide] | 2.26 | 189 to 190 | 0.0617 | 54.6 | 780 |  | 
NS(=O)(=O)c1ccc(CCN2C(=O)/C(=C/c3ccc(F)cc3)C=C2c2ccc(Cl)cc2)cc1 [Compound 3n, (E)-4-(2-(5-(4-chlorophenyl)-3-(4-fluorobenzylidene)-2-oxo-2,3-dihydro-1H-pyrrol-1-yl)ethyl)benzenesulphonamide] | 1.42 | 159 to 160 | 0.0391 | 41.3 | 466 |  | 
NS(=O)(=O)c1ccc(CCN2C(=O)/C(=C/c3ccc(Cl)cc3)C=C2c2ccc(Cl)cc2)cc1 [Compound 3o, (E)-4-(2-(3-(4-chlorobenzylidene)-5-(4-chlorophenyl)-2-oxo-2,3-dihydro-1H-pyrrol-1-yl)ethyl)benzenesulphonamide] | 5.09 | 163 to 164 | 0.0789 | 68.9 | 1890 |  | 
NS(=O)(=O)c1ccc(CCN2C(=O)/C(=C/c3ccc(Br)cc3)C=C2c2ccc(Cl)cc2)cc1 [Compound 3p, (E)-4-(2-(3-(4-bromobenzylidene)-5-(4-chlorophenyl)-2-oxo-2,3-dihydro-1H-pyrrol-1-yl)ethyl)benzenesulphonamide] | 5.87 | 176 to 177 | 0.0854 | 74.3 | 3850 |  | 
CC(C)(C)c1ccc(C2=C/C(=C\c3ccccc3)C(=O)N2CCc2ccc(S(N)(=O)=O)cc2)cc1 [Compound 3q, (E)-4-(2-(3-benzylidene-5-(4-(tert-butyl)phenyl)-2-oxo-2,3-dihydro-1H-pyrrol-1-yl)ethyl)benzenesulphonamide] | 8.5 | 183 to 184 | 0.396 | 468 | 1650 | 8.5 | 
CC(C)(C)c1ccc(C2=C/C(=C\c3ccc(F)cc3)C(=O)N2CCc2ccc(S(N)(=O)=O)cc2)cc1 [Compound 3r, (E)-4-(2-(5-(4-(tert-butyl)phenyl)-3-(4-fluorobenzylidene)-2-oxo-2,3-dihydro-1H-pyrrol-1-yl)ethyl)benzenesulphonamide] | 6 | 187 to 188 | 0.356 | 418 | 1260 |  | 
CC(C)(C)c1ccc(C2=C/C(=C\c3ccc(Cl)cc3)C(=O)N2CCc2ccc(S(N)(=O)=O)cc2)cc1 [Compound 3s, (E)-4-(2-(5-(4-(tert-butyl)phenyl)-3-(4-chlorobenzylidene)-2-oxo-2,3-dihydro-1H-pyrrol-1-yl)ethyl)benzenesulphonamide] | 7.93 | 196 to 197 | 0.342 | 432 | 4360 |  | 0.34
CC(C)(C)c1ccc(C2=C/C(=C\c3ccc(Br)cc3)C(=O)N2CCc2ccc(S(N)(=O)=O)cc2)cc1 [Compound 3t, (E)-4-(2-(3-(4-bromobenzylidene)-5-(4-(tert-butyl)phenyl)-2-oxo-2,3-dihydro-1H-pyrrol-1-yl)ethyl)benzenesulphonamide] | 9.27 | 204 to 205 | 0.308 | 391 | 4690 | 9.3 | 
